The values that follow come from US20200323811A1, “INTRANASAL PHARMACEUTICAL COMPOSITION COMPRISING ANTICANCER DRUGCONTAINING NANOPARTICLES FOR TREATING BRAIN DISEASES” (INDUSTRY-UNIVERSITY COOPERATION FOUNDATION HANYANG …, priority 2016, published 2020).

Series [1] in a line: In vivo toxicity by body weight of inoculated animals. Further details: species or system rat. Particulars: glioblastoma rats, 2 mg/kg intranasal. The method, then:
Further, the in vivo toxicity of NPs was evaluated by measuring a body weight of the inoculated animal. The change in body weight is reliable indicator for assessing the in vivo toxicity of a delivered drug. […] However, an insignificant change in body weight was shown in all animals due to cancer mass over time after tumor implantation (FIG. 8).

For a further series, the system named is C6-glioma cells. The series is described as follows: TUNEL assay and Hoechst staining in cultured cells. It counts as cell-based, rat. The protocol:
(§1) The rat (C6) and human (U87MG) glioblastoma cells used in this experiment were obtained from ATCC (Rockville, Md.), and cultured in Dulbecco's Modified Eagle's Medium (DMEM) containing 10% fetal bovine serum, penicillin (100 IU/mL) and streptomycin (100 μg/mL) at 37° C. in a 5% CO2 incubator. For all in vitro experiments, the cells were seeded in a 12-well plate at a density of 1×10^5 cells/well.

For the next series, the system named is C6-Luc glioblastoma. The series is described as follows: Intracranial C6-Luc orthotopic glioblastoma model, intranasal inoculation. It counts as in vivo, Sprague-Dawley rats. The method, then:
The therapeutic efficacy of intranasally-delivered PTX-loaded NPs was evaluated in an intracranial C6-Luc orthotropic model. […] Therefore, as a PTX solvent, DMSO was used. In addition, to minimize DMSO-associated cytotoxicity, the PTX-loaded NPs were dissolved in PBS. The intranasal inoculation started at day 4 after tumor administration and was performed daily for a total of three times.
(§2) Specifically, intracranial tumor models were established from 6-week-old male Sprague-Dawley rats. The anesthetized rats were placed in a stereotaxic frame, and the skull was gently exposed to spot the bregma. The monitoring points for the bregma were as follows: anteroposterior, 0 mm; lateral, 2.0 mm; and ventral, 4.0 mm. A fine burr hole (0.7 mm) was created in the skull without disrupting the dura using a microsurgical drill. A total of 2×10^5/10 μl C6-Fluc cells were injected using a 26-gauge Hamilton microsyringe (80330; Reno, Nev., USA) at a speed of 0.9 μl/min. To generate a human glioblastoma model, 1×10^5/[…] of U87MG-Fluc cells were inoculated into immunodeficient nude mice by the same method. After the operation, the skin was sutured.
In vivo and ex vivo bioluminescence imaging was performed. For in vivo bioluminescence imaging, 150 mg/kg of D-luciferin (Caliper, Hopkinton, Mass.) was intraperitoneally injected into anesthetized animals. The live images were taken 15 minutes after the injection of D-luciferin by the IVIS Lumina caliper series (Life Technologies, Carlsbad, Calif.). […]
For Nissl staining, paraffin-embedded brain sections were deparaffinized, rehydrated, and then subjected to treatment with a 0.1% crystal violet solution according to a standard protocol. […] The cancer volume was calculated using ImageJ software as described above. […]
To investigate apoptosis in the de-paraffinized and hydrated brain sections, the TUNEL assay was performed using an in situ apoptosis detection kit (Millipore) according to the manufacturer's instruction. […] Fluorescent signals of the cells were measured by taking images using a fluorescence microscope (Leica, Wetzlar, Germany). […]

For another series, the system named is C-6 glioma cells. The series is described as follows: Viability/apoptosis (calcein-AM / EthD-1) analysis. It counts as cell-based, rat. Particulars: 24 hours. The method, then: as §1
An image was captured using a fluorescence microscope (Leica, Wetzlar, Germany). A percentage of live or dead cells was calculated using ImageJ software, developed by the National Institute of Health (NIH).

The subject of the next series is U87MG glioma cells. The series is described as follows: Cell cycle (DNA content, PI) analysis. It counts as cell-based, human. Particulars: 24 hours. The protocol: as §1
The next series has as its system rat glioma cells. The series is described as follows: Annexin V / 7-AAD apoptosis flow cytometry. It is filed as cell-based. Particulars: 24 hours. The protocol:
as §1

For a further series, the system named is C6 glioblastoma cells. The series is described as follows: Cell cycle (DNA content, PI) analysis. Particulars: 10 μM PTX equivalent, 24 hours. It counts as cell-based, rat. The protocol: as §1
And then, the cells were collected, and fixed with 70% ethanol at 4° C. for 2 hours. After incubation, the cells were washed, and additionally incubated with a DNase-free RNase (1 mg/mL) and 0.02 mg/mL of propidium iodide (PI). A cell cycle profile was studied using a flow cytometer (BD FACS Calibur™), and analyzed using FlowJo software.

A further series has as its system U87MG-Fluc glioblastoma. Kind of series: Human glioblastoma (U87MG-Fluc) model, intranasal inoculation. It is filed as in vivo, immunodeficient nude mice. Particulars: 1 mg/kg intranasal, three inoculations. The method, then: as §2, with “A total of 2×10^5/10 μl C6-Fluc cells were injected using a 26-gauge Hamilton microsyringe (80330;” left out, “sutured. […] In vivo and ex vivo bioluminescence imaging was performed. For in vivo bioluminescence imaging, 150 mg/kg of D-luciferin (Caliper, Hopkinton, Mass.) was intraperitoneally injected into anesthetized animals. The live images were taken 15 minutes after the injection of D-luciferin by the IVIS Lumina caliper series (Life Technologies, Carlsbad, Calif.). To evaluate ex vivo bioluminescence, the excised brain tissue was incubated with a D-luciferin substrate for 15 minutes, followed by imaging as described above. […] The cancer volume was calculated using ImageJ software as described above.” for “sutured.”

Consider `CC(=O)O[C@H]1C(=O)[C@@]2(C)[C@H]([C@H](OC(=O)c3ccccc3)[C@]3(O)C[C@H](OC(=O)[C@H](O)[C@@H](NC(=O)c4ccccc4)c4ccccc4)C(C)=C1C3(C)C)[C@]1(OC(C)=O)CO[C@@H]1C[C@@H]2O` [PTX, Paclitaxel], for which, in series [1], the “change in body weight” value was “significant effect on body weight loss”. The “nuclear morphology (Hoechst staining)” value with C6-glioma cells (compared with non-treated glioma cells) is “severe formation of DNA fragmentation or segmentation or condensed nuclei”. In addition, in the series with C6-glioma cells (equivalent amounts of PTX), the “number of apoptotic cells stained with TUNEL” value was “concentration-dependently increased”. The “number of TUNEL-positive cells” value was around 236.1 with C6-glioma cells (fifth tested micromolar concentration (50 μM)); “approximately 77” in the series with C6-glioma cells (first tested micromolar concentration (0.01 μM)); around 198.6 with C6-glioma cells (fourth tested micromolar concentration (10 μM)); around 97.5 in the series on C6-glioma cells (second tested micromolar concentration (0.1 μM)); around 136.6 with C6-glioma cells (third tested micromolar concentration (1 μM)). For the same compound, the “tumor volume (Nissl staining)” value in the series on C6-Luc glioblastoma (2 mg/kg PTX equivalent intranasal, PBS 98.4) turned out to be 90.1 mm^3. In addition, in the series with C6-Luc glioblastoma (2 mg/kg PTX intranasal, three daily inoculations from day 4, up to day 14), the “tumor progression (in vivo bioluminescence imaging)” value is reported as “relatively identical to the saline-treated group”. Also, the “increase in in vivo bioluminescence signals” value in the series on C6-Luc glioblastoma (day 14, 2 mg/kg intranasal) is 1.0×10^8 fold. Moreover, the dead cells with C-6 glioma cells (0.01 μM) is listed as 8.3%; with C-6 glioma cells (0.1 μM), 23.1%; in the series with C-6 glioma cells (1 μM), 31.8%; with C-6 glioma cells (10 μM), 49.2%; in the series with C-6 glioma cells (50 μM) it was 63.8%. In addition, the “arrested population at the G2-M phase compared with C6 cells” value in the series on U87MG glioma cells is listed as “slightly higher arrested population at the G2-M phase”. The results for the “annexin V-positive cells” value in the series on rat glioma cells (1 μM), in the series on rat glioma cells (10 μM) and in the series with rat glioma cells (50 μM) were 30.1%, 33.1% and 34.2%, respectively. For the same compound, the “number of annexin V and 7-AAD-positive cells” value in the series on rat glioma cells (various concentrations) is “concentration-dependently increased”. Also, the “cells at the G1 phase” value in the series on C6 glioblastoma cells is reported as 9%. Also, in the series on C6 glioblastoma cells (non-treated 29%), the “cells at the G2-M phase” value worked out at 83%. In addition, the “tumor growth / therapeutic effect compared with saline (BLI)” value with U87MG-Fluc glioblastoma was “did not show any therapeutic effect”.
